Test systems include DU-145 prostate; CAKI-1 renal; NCI-H460 lung; OVCAR-4 ovarian; SF-268 CNS; SK-MEL-5 melanoma; SK-OV-3 ovarian; NCI-H226 lung; HOP-62 NSCLC; NCI-H522 lung.
Common to all, as to assay: NCI-60 cell line screen, 48 h

Molecules are shown by their SMILES.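 Grown in 96-well plates, cells were treated for 48 hours with each compound at five concentrations. Insufficient inhibition: endpoint recorded as highest concentration tested. GI50 is the concentration that inhibits growth by half. Definition used: TGI = concentration required for complete inhibition of growth.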 Where only a bound is given, the exact number is not on record here.

Consider `CC(C)(C)OC(=O)NCC(=O)NC1C/C(=N\O)c2sccc21` (stereo not given), for which the TGI with DU-145 prostate, in the assay on CAKI-1 renal, in the assay with NCI-H460 lung, in the assay on OVCAR-4 ovarian, in the assay with SF-268 CNS and with SK-MEL-5 melanoma was more than 100 µM throughout. Also, the TGI with SK-OV-3 ovarian, in the assay on NCI-H226 lung and with HOP-62 NSCLC was more than 100 µM each time.
For `CC(=O)c1ccc(N2CCN(C3=CC(=O)c4c(O)ccc(O)c4C3=O)CC2)cc1`, the TGI with DU-145 prostate, with CAKI-1 renal, with NCI-H460 lung, with OVCAR-4 ovarian, in the assay with SF-268 CNS and in the assay with HOP-62 NSCLC was more than 100 µM throughout.
For `COc1ccc2c(c1)CC1Cc3ccccc3CCN1C2` (stereo not given), the TGI in the assay on DU-145 prostate was more than 100 µM; in the assay on CAKI-1 renal it was 59.1 µM; with NCI-H460 lung it was more than 100 µM; with OVCAR-4 ovarian it was more than 100 µM; in the assay on SF-268 CNS it was more than 100 µM; in the assay with SK-MEL-5 melanoma it was 41.7 µM. Moreover, the TGI in the assay with NCI-H522 lung is 63.6 µM; in the assay with SK-OV-3 ovarian, more than 100 µM; in the assay on NCI-H226 lung, more than 100 µM; with HOP-62 NSCLC, more than 100 µM.
Take `CCNc1ncnc2c1nnn2CC`: the TGI in the assay with DU-145 prostate, in the assay with CAKI-1 renal, in the assay with OVCAR-4 ovarian, in the assay on SK-MEL-5 melanoma, in the assay with NCI-H522 lung and in the assay with SK-OV-3 ovarian was more than 100 µM in each case. Moreover, the TGI in the assay on NCI-H226 lung and in the assay on HOP-62 NSCLC was more than 100 µM in each case.
Take `CN(/N=N/c1nc[nH]c1C(N)=O)C1CCCCC1`: the TGI with NCI-H460 lung, with OVCAR-4 ovarian, in the assay with SF-268 CNS, with SK-MEL-5 melanoma, in the assay on NCI-H522 lung and with SK-OV-3 ovarian was more than 100 µM each time. For the same molecule, the TGI with NCI-H226 lung and with HOP-62 NSCLC was more than 100 µM in each case.
On to `CNC(=S)N/N=C(\C)c1nc2ncccc2[nH]1`, for which the TGI in the assay on DU-145 prostate was more than 100 µM; in the assay with CAKI-1 renal, 99.1 µM; with NCI-H460 lung, more than 100 µM; in the assay on OVCAR-4 ovarian it was more than 100 µM; in the assay on SF-268 CNS, more than 100 µM; in the assay with SK-MEL-5 melanoma, more than 100 µM. Besides, the TGI in the assay on NCI-H522 lung was more than 73.3 µM; with SK-OV-3 ovarian, more than 100 µM; in the assay with NCI-H226 lung it was more than 90.9 µM; in the assay on HOP-62 NSCLC, more than 100 µM.
Take `CCC(=O)NC(OCC1(CC)COC1)(C(F)(F)F)C(F)(F)F`: the TGI in the assay on DU-145 prostate, in the assay with NCI-H460 lung, in the assay with SF-268 CNS, with NCI-H522 lung, in the assay with SK-OV-3 ovarian and in the assay with NCI-H226 lung was more than 100 µM in each case. Moreover, the TGI with HOP-62 NSCLC is more than 100 µM.
In the case of `COc1ccc2c(c1OC)C(=O)O[C@@H]2[C@H]1c2cc3c(cc2CCN1C)OCO3`, the TGI in the assay on DU-145 prostate, in the assay on CAKI-1 renal, with NCI-H460 lung, in the assay with OVCAR-4 ovarian, in the assay on SF-268 CNS and with SK-MEL-5 melanoma was more than 100 µM each time. For the same molecule, the TGI with NCI-H522 lung, in the assay on SK-OV-3 ovarian, in the assay with NCI-H226 lung and in the assay with HOP-62 NSCLC was more than 100 µM throughout.
For the molecule `COC(=O)C1=C(C)N(NC(=O)c2ccccc2)C2(O)CCCC(=O)C12C` (stereo not given), the TGI with CAKI-1 renal, in the assay with OVCAR-4 ovarian, with SK-MEL-5 melanoma, in the assay with NCI-H522 lung, in the assay on SK-OV-3 ovarian and in the assay on NCI-H226 lung was more than 100 µM in each case.
Take `COc1cc(OC)cc(-c2n/c(=C\c3c(O)[nH]c4ccc(Cl)cc34)cc3c2=Nc2ccccc2-3)c1`: the GI50 is 2.91 µM in the assay on DU-145 prostate; 12.9 µM with CAKI-1 renal; 3.26 µM with NCI-H460 lung; 1.76 µM in the assay with OVCAR-4 ovarian; 3.35 µM with SF-268 CNS; 17.7 µM with SK-MEL-5 melanoma. Besides, the GI50 is 3.09 µM with NCI-H522 lung, 10.2 µM in the assay on SK-OV-3 ovarian, 22.8 µM in the assay with NCI-H226 lung and 1.99 µM in the assay with HOP-62 NSCLC. Further, the TGI was found to be 6.88 µM in the assay with DU-145 prostate; 30.5 µM with CAKI-1 renal; 10.5 µM in the assay with NCI-H460 lung; 3.77 µM in the assay on OVCAR-4 ovarian; 11.4 µM with SF-268 CNS; 62.5 µM with SK-MEL-5 melanoma. The TGI in the assay with NCI-H522 lung came to 10.5 µM; in the assay with SK-OV-3 ovarian it was 26 µM; with NCI-H226 lung, 59.8 µM; in the assay on HOP-62 NSCLC it was 3.99 µM.
With `C=CCC1(CC)C(=O)NC(=O)NC1=O`, the TGI in the assay on NCI-H460 lung, with SF-268 CNS, with NCI-H522 lung, in the assay with SK-OV-3 ovarian, with NCI-H226 lung and in the assay with HOP-62 NSCLC was more than 100 µM each time.

These data come from PubChem BioAssay (NCI).
